# Measurements: patent US10004740B2, “Prodrugs of HIV reverse transcriptase inhibitors” (Merck Sharp & Dohme Corp., priority 2014, dated 2018)
# What was measured:
# [1] = biological target: T1, HIV-1 RT wild-type enzyme (Human immunodeficiency virus type 1 group M subtype B, UniProt P04585); test: Determination of HIV-1 reverse transcriptase inhibitory activity (RT polymerase assay, electrochemiluminescence); assay type: biochemical
# T1 construct: The HIV-1 RT wild-type enzyme (final concentration of 83 pM)
# Source text: Determination of HIV-1 Reverse Transcriptase Inhibitory Activity
# The heterodimeric nucleic acid substrate used in the HIV-1 RT polymerase reactions was generated by annealing the DNA primer, biotinylated pD500 (Sigma Aldrich, USA, 5′-biotin-ttg aaa tga ctg cgg tac ggc-3′), (SEQ ID NO: 1) to the nucleotide RNA template t500 (derived from hepatitis C virus [HCV] sequence, IBA, Germany, 5′-[…]-3′), (SEQ ID NO: 2). The HIV-1 RT wild-type enzyme (final concentration of 83 pM) was combined with an inhibitor or dimethyl sulfoxide (DMSO, 10% in the final reaction mixture) in assay buffer (62.5 mM Tris-HCl [pH 7.8], 1.25 mM dithiothreitol, 7.5 mM MgCl2, 100 mM KCl, 0.03% CHAPS, and 125 μM EGTA). The mixture was then preincubated on an orbital shaker for 30 min at room temperature in microtiter plates (Costar 3365, Corning, USA). A polymerization reaction was initiated by the addition of RNA template/pD500 DNA primer hybrid (16.6 nM final of RNA/DNA hybrid) and dNTPs (2 μM dATP, dGTP, dCTP and 66.6 nM Ru-dUTP (Meso Scale Discovery, USA)). Plate was sealed and incubated for 5-10 min at room temperature on an orbital shaker. Plate was then incubated for 90 min at 37° C. and reactions quenched with 60 μl quenching buffer (50 mM EDTA, 0.7% BSA, 0.7% Tween-20, 0.017% sodium azide in PBS). The resulting solution was incubated at room temperature for an additional 5 min and then 50 μL was transferred to pre-blocked Avidin plates (L15AA, Meso Scale Discovery). Each well of Avidin plate was blocked for 1 h at room temperature with 100 μL 5% BSA in PBS. Blocking solution was removed by tapping vigorously on filter paper to remove all excess liquid. Reaction on pre-blocked avidin plate proceeded for 60 min at room temperature and then contents removed by tapping vigorously on filter paper to remove all excess liquid. After washing plate 3 times with 150 μL 1×PBS and blotting dry between cycles, 150 μL 1× Read Buffer T (4× Read Buffer T, Meso Scale Discovery) was added and incubated for 5 min at room temperature before counting on a Sector Imager […] (Meso Scale Discovery). Titration curves and IC50 values were calculated using a four parameter logistic fit according to standard procedures. Briefly, % Inhibition=100×((sample raw value)−(mean value of the low control or 0% inhibition))/((mean value of wells representing 100% inhibition)−(mean value of 0% inhibition)). In this assay, low control wells contain DMSO (0% inhibition) and 100% inhibition wells contain 1 μM efavirenz.
# [2] = Pharmacokinetic studies in rats, oral gavage, plasma LC-MS/MS; assay type: in vivo; conditions: male, Wistar-Hannover; rat, 5 mg/kg PO, 40% PEG400/10% Tween-80/50% water; plasma concentration of Parent after dosing the Parent compound
# Procedure: All animal studies were carried out under Good Laboratory Practice regulations for nonclinical laboratory studies. All animal housing and care procedures were in compliance with the Federal Animal Welfare Act and the Institute for Laboratory Animal Resources. All procedures carried out on the animals were reviewed and approved by the Institutional Animal Care and Use Committee. The animal facility was fully accredited with the Association for Assessment and Accreditation of Laboratory Animal Care International.
# Two or three male Wistar-Hannover rats weighing 250 to 350 grams with vendor-placed carotid artery catheters were obtained from Charles River (Raleigh, N.C., U.S.A.). Animals were acclimated on a 12-hour light:dark cycle for a minimum of three days in ventilated plastic cages with food and water ad libitum. Blood samples were automatically collected using the Instech Automated Blood sampler (ABS, Plymouth Meeting, Pa.) at designated intervals up to 24 hr and were manually collected post 24 hr.
# Animals were fasted overnight before either the Parent compounds of Examples 1-8 (Formula I′) or compounds of Examples 1 to 8 (Formula I) were administered to rats via an oral gavage at the doses and in vehicles specified in Table 3. The animals were allowed access to water ad libitum, while food was returned 4 hours after dosing.
# Blood was drawn from catheters placed in the carotid […] at pre-dose, and 0.25, 0.5, 1, 2, 4, 8, 12, 18, 24, 30, and 48 hr after dosing for all compounds and additionally at 72 hr for compounds of example 1, 3, 4, 5, and 7. The plasma was separated by centrifugation (2 minutes at 10000 rpm) and stored at −70° C. until further analysis.
# The quantitative analysis of the compounds was performed using a liquid chromatography and tandem mass spectrometry method (LC-MS/MS). The plasma samples were stabilized as needed prior to extraction. Fifty microliter of each unknown together with the standards and quality control samples were extracted using an automated protein precipitation procedure on a Hamilton workstation. The extract was centrifuged and the supernatant was transferred for analysis. The separation was enabled by a Thermo Aria LX-2 LC system on a reversed phase column e g Waters XSelect HSS T3 XP (50×2.1 mm×2.5 u) or Phenomenex Beta Test Column (50×2.1 mm). The compounds were detected using selected reaction monitoring (SRM) methods by an AB Sciex API5000 mass spectrometer in the positive or negative ionization mode. In addition, chromatographic peaks for Parent compounds of Examples 1-8 (Formula I′) and compounds of Examples 1 to 8 (Formula I) were resolved chromatographically with baseline to baseline separation.
# Pharmacokinetic parameters were obtained using noncompartmental methods (Watson®). The area under the plasma concentration-time curve (AUC0-t) was calculated from the first time point (0 minutes) up to the last time point with measurable drug concentration (i.e., concentration of Parent (Formula I′ compound) resulting after administration of each of the Parent and Example compounds) using the linear trapezoidal or linear/log-linear trapezoidal rule. The remaining area under the plasma concentration-time curve (AUCt-∞) was estimated by dividing the observed concentration at the last time point by the elimination rate constant. This value was added to AUC0-t to estimate the AUC0-∞. The maximum plasma concentration (Cmax) and the time at which maximum concentration occurred (Tmax) were obtained by inspection of the plasma concentration-time data.
# Table 3 provides AUC values obtained in these studies. In Table 3, the Parent of each Example number refers to the Parent counterpart compound of said Example number compound wherein R^4 is replaced with —H.
Compound,IC50 [1] [nM],AUC(0-inf) [2] [µM·h]
"N#Cc1cc(Cl)cc(Oc2c(C(F)F)ncn(Cc3cc(Cl)n[nH]c3=O)c2=O)c1 [Parent of Ex. 2, 3-chloro-5-((1-((6-chloro-3-oxo-2,3-dihydropyridazin-4-yl)methyl)-4-(difluoromethyl)-6-oxo-1,6-dihydropyrimidin-5-yl)oxy)benzonitrile]",3.3,15.3
"N#Cc1cc(Cl)cc(Oc2c(C(F)(F)F)ncn(Cc3cc(Cl)n[nH]c3=O)c2=O)c1 [Parent of Ex. 3, 3-chloro-5-((1-((6-chloro-3-oxo-2,3-dihydropyridazin-4-yl)methyl)-6-oxo-4-(trifluoromethyl)-1,6-dihydropyrimidin-5-yl)oxy)benzonitrile]",2.7,10.2
"N#Cc1cc(Cl)cc(Oc2c(C(F)(F)F)ncn(Cc3cc(C(F)F)n[nH]c3=O)c2=O)c1 [Parent of Ex. 4, 3-chloro-5-((1-((6-(difluoromethyl)-3-oxo-2,3-dihydropyridazin-4-yl)methyl)-6-oxo-4-(trifluoromethyl)-1,6-dihydropyrimidin-5-yl)oxy)benzonitrile]",3.2,21
"CC(F)(F)c1cc(Cn2cnc(C(F)(F)F)c(Oc3cc(Cl)cc(C#N)c3)c2=O)c(=O)[nH]n1 [Parent of Ex. 5, 3-chloro-5-((1-((6-(1,1-difluoroethyl)-3-oxo-2,3-dihydropyridazin-4-yl)methyl)-6-oxo-4-(trifluoromethyl)-1,6-dihydropyrimidin-5-yl)oxy)benzonitrile]",4.6,29.1
"N#Cc1cc(Cl)cc(Oc2c(C(F)(F)F)ncn(Cc3cc(C(F)(F)F)c(=O)[nH]n3)c2=O)c1 [Parent of Ex. 6, 3-chloro-5-((6-oxo-1-((6-oxo-5-(trifluoromethyl)-1,6-dihydropyridazin-3-yl)methyl)-4-(trifluoromethyl)-1,6-dihydropyrimidin-5-yl)oxy)benzonitrile]",7.9,2
"N#Cc1cc(Cl)cc(Oc2c(C(F)(F)F)ncn(Cc3cc(-c4ccc(F)cc4)c(=O)[nH]n3)c2=O)c1 [Parent of Ex. 7, 3-chloro-5-((1-((5-(4-fluorophenyl)-6-oxo-1,6-dihydropyridazin-3-yl)methyl)-6-oxo-4-(trifluoromethyl)-1,6-dihydropyrimidin-5-yl)oxy)benzonitrile]",3.7,8.2
"CC(F)(F)c1cc(Cn2cnc(C(C)(F)F)c(Oc3cc(Cl)cc(C#N)c3)c2=O)c(=O)[nH]n1 [Parent of Ex. 8, 3-chloro-5-((4-(1,1-difluoroethyl)-1-((6-(1,1-difluoroethyl)-3-oxo-2,3-dihydropyridazin-4-yl)methyl)-6-oxo-1,6-dihydropyrimidin-5-yl)oxy)benzonitrile]",4.7,13.9
